# Experimental data: patent publication US11801257B2, “Stimulation of an immune response by enantiomers of cationic lipids” (PDS Biotechnology Corporation, priority 2008, dated 2023)
# Key:
# DC2.4 dendritic cells = settings: cited from earlier work; for ability to stimulate the expression of CD 80 on DC 2.4 cells (relative potency): comparison by head group and acyl chain; for expression of CD80/CD86: liposomes, DC2.4 cells
# TC-1 HPV-positive tumors = assay: TC-1 HPV-positive tumor growth in mice treated with cationic lipid/E7 compositions; assay type: in vivo; settings: for ability to eradicate HPV-E7 positive tumors in tumor-bearing mice (tumor regression): lipid/E7 formulations, multiple lipid doses, summary statements
# Description: TC-1 cells are C57BL/6 mouse lung […] cells that have been transformed with the HPV16 E6 and E7 oncogenes and activated H-ras. Cells were grown in RPMI medium (commercially available from Invitrogen of Carlsbad, CA) supplemented with 10% fetal bovine serum and 100 U/ml penicillin, and […] streptomycin. The MHC class I restricted peptide from the HPV 16 E7 protein (amino acid 11 to 20, YMLDLQPETT [SEQ. ID. NO. 1]) was synthesized by the University of Pittsburgh Peptide Synthesis Facility by solid state synthesis using an Advanced ChemTech model 200 peptide synthesizer and purified by HPLC.
# In FIG. 12, mice were subcutaneously injected with TC-1 cells on day 0 in order to induce the growth of HPV-positive tumors. The DOTAP/E7 compositions were comprised of racemic mixtures of DOTAP. The mice received DOTAP/E7 compositions containing 10 μg E7 peptide subcutaneously on the opposite side of the abdomen on day 6.
# In FIGS. 13 and 14, mice were subcutaneously injected with TC-1 cells on day 0 in order to induce the growth of HPV-positive tumors. The mice received R and S-DOTAP/E7 compositions containing 20 μg E7 peptide subcutaneously on the opposite side of the abdomen on day 6. R or S-DOTAP lipid concentrations in the complex varied from 3 to 600 nmole (3, 15, 30, 75, 100, 125, 150, 300, and 600 nmole).
# human T lymphocytes = settings: cited from earlier work
# [1] = tested on: Human HLA-A2 dendritic cells; assay: Chemokine and cytokine production by human dendritic cells (Searchlight Protein Array Multiplex ELISA); assay type: cell-based; settings: 40 micromolar complex
# Description: Human HLA-A2 dendritic cells (Lonza, Walkersville, MD), were treated and grown in culture as described above. On day 3 the cells were treated with 40 micromolar DOTAP/E7 complex or the potent immunostimulator lipopolysaccharide (LPS) at 50 micromolar concentrations (positive control). Medium from assay wells was removed and centrifuged at 1300 rpm in a microfuge for 5 minutes to pellet unattached dendritic cells. The supernatants were removed and treated with 10 microliters per ml of Calbiochem (La Jolla, CA) protease inhibitor cocktail set I (Cat. No. 539131) and stored frozen prior to analysis. Samples were analyzed for chemokine and cytokine expression by Searchlight Protein Array Multiplex ELISA assay [Pierce Biotechnology (Woburn, MA)].
# purified human T-cells = assay: Induction of human T-cell proliferation by R and S enantiomers of DOTAP; assay type: cell-based
# Description: In the present studies, the induction of human T-cell proliferation by the R and S enantiomers of DOTAP was investigated and confirmed using purified T-cells obtained from Lonza, MA.
# [2] = lipid 600 nmole with 20 μg E7 peptide, s.c. day 6 (S-DOTAP P<0.05)
compound,measurement,setting,value
"CCCCCCCCCCCCCC(=O)OCC(COP(=O)(OCC)OCC[N+](C)(C)C)OC(=O)CCCCCCCCCCCCC (stereo not drawn) [DMEPC-14:0, 1,2-dimyristoyl-sn-glycero-3-ethylphosphocholine]",ability to stimulate the expression of CD 80 on DC 2.4 cells (relative potency),DC2.4 dendritic cells,more potent
"CCCCCCCCCCCCCCOC(=O)CC[C@H](NC(=O)[C@@H](N)CCCCN)C(=O)OCCCCCCCCCCCCCC [DMKD, O,O′-dimyristyl-N-lysyl-glutamate]",expression of CD80/CD86,DC2.4 dendritic cells,strongly stimulated
"CCCCCCCCCCCCCCOC(=O)C[C@H](NC(=O)[C@@H](N)CCCCN)C(=O)OCCCCCCCCCCCCCC [DMKE, O,O′-dimyristyl-N-lysyl aspartate]",expression of CD80/CD86,DC2.4 dendritic cells,strongly stimulated
"CCCCCCCC/C=C\CCCCCCCC(=O)OC[C@@H](COP(=O)(OCC)OCC[N+](C)(C)C)OC(=O)CCCCCCC/C=C\CCCCCCCC (stereo partly drawn) [DOEPC-18:1, 1,2-dioleoyl-sn-glycero-3-ethylphosphocholine]",ability to stimulate the expression of CD 80 on DC 2.4 cells (relative potency),DC2.4 dendritic cells,more potent
"CCCCCCCC/C=C\CCCCCCCC(=O)OC[C@H](COP(=O)(O)OCC(O)CO)OC(=O)CCCCCCC/C=C\CCCCCCCC (stereo partly drawn) [DOPG, 1,2-dioleoyl-sn-glycero-3-phosphoglycerol]",inhibition of tumor growth,TC-1 HPV-positive tumors; anionic lipid liposomes 150 nmole with antigen,failed to significantly inhibit tumor growth
"CCCCCCCC/C=C\CCCCCCCC(=O)OC[C@@H](C[N+](C)(C)C)OC(=O)CCCCCCC/C=C\CCCCCCCC [DOTAP, 1,2-dioleoyl-3-trimethylammoninum propane]",expansion of T cell colonies in culture,"human T lymphocytes; HLA-A2+ donor lymphocytes, three stimulations at 7-day interval, three days after third, versus medium control",extensive expansion of T cell colonies
same,ERK phosphorylation in T cells,human T lymphocytes,confirmed by ERK phosphorylation
same,expression of costimulatory molecule CD86 on human T lymphocytes,human T lymphocytes,"induced expression of the costimulatory molecule, CD86"
same,inhibition of tumor growth,"TC-1 HPV-positive tumors; liposomes 100 nmole, without E7 peptide",did not show significant inhibition of tumor growth
same,tumor growth versus untreated control on day 23,"TC-1 HPV-positive tumors; racemic DOTAP 15 nmole with 10 μg E7 peptide, s.c. day 6, P<0.05",partial tumor inhibition effect
same,tumor growth versus untreated control on day 23,"TC-1 HPV-positive tumors; racemic DOTAP 30 nmole with 10 μg E7 peptide, s.c. day 6, P<0.01",enhanced efficacy
same,tumor growth versus untreated control on day 23,"TC-1 HPV-positive tumors; racemic DOTAP 75 nmole with 10 μg E7 peptide, s.c. day 6, P<0.001",most significant tumor regression effect
same,tumor growth versus untreated control on day 23,"TC-1 HPV-positive tumors; racemic DOTAP 150 nmole with 10 μg E7 peptide, s.c. day 6, P<0.01",enhanced efficacy
same,tumor growth versus untreated control on day 23,"TC-1 HPV-positive tumors; racemic DOTAP 300 nmole with 10 μg E7 peptide, s.c. day 6, P<0.01",enhanced efficacy
same,tumor growth versus untreated control on day 23,"TC-1 HPV-positive tumors; racemic DOTAP 600 nmole with 10 μg E7 peptide, s.c. day 6",did not show anti-tumor activity
"CCCCCCCCCCCC(=O)OC[C@H](COP(=O)(OCC)OCC[N+](C)(C)C)OC(=O)CCCCCCCCCCC (stereo partly drawn) [DXEPC-12:0, 1,2-dilauroyl-sn-glycero-3-ethylphosphocholine]",ability to stimulate the expression of CD 80 on DC 2.4 cells (relative potency),DC2.4 dendritic cells,more potent
"CCCCCCCC/C=C\CCCCCCCC(=O)OC[C@@H](C[N+](C)(C)C)OC(=O)CCCCCCC/C=C\CCCCCCCC [R-DOTAP, 1,2-dioleoyl-3-trimethylammoninum propane]",potency in inducing chemokine and cytokine production relative to DOTAP racemic mixture,[1],equivalent to or higher than
same,"potency in inducing chemokine and cytokine production, R versus S enantiomer",[1],more potent immune activator than S-DOTAP
same,"potency in inducing chemokine and cytokine production, R versus S enantiomer",[1]; listed as R-enantiomer,higher potency
same,induction of human T-cell proliferation,purified human T-cells,induced more T-cell proliferation than S-DOTAP
same,tumor growth versus untreated control on day 23,"TC-1 HPV-positive tumors; lipid 300 nmole with 20 μg E7 peptide, s.c. day 6, P<0.0001",most significant tumor regression efficacy
same,tumor growth versus untreated control on day 23,TC-1 HPV-positive tumors; [2],did not show significant anti-tumor activity
same,tumor growth versus untreated control on day 23,"TC-1 HPV-positive tumors; lipid 75-150 nmole with 20 μg E7 peptide, s.c. day 6, P<0.001",partial tumor inhibition effect
same,ability to eradicate HPV-E7 positive tumors in tumor-bearing mice (tumor regression),TC-1 HPV-positive tumors,results in tumor regression
"CCCCCCCC/C=C\CCCCCCCC(=O)OC[C@@H](C[N+](C)(C)C)OC(=O)CCCCCCC/C=C\CCCCCCCC [S-DOTAP, 1,2-dioleoyl-3-trimethylammoninum propane]",induction of human T-cell proliferation,purified human T-cells,confirmed
same,tumor growth versus untreated control on day 23,TC-1 HPV-positive tumors; [2],induced the slowest tumor growth
same,tumor growth / tumor regression over the lipid dose series,"TC-1 HPV-positive tumors; lipid 3 to 600 nmole with 20 μg E7 peptide, s.c. day 6",did not exhibit the ability to inhibit tumor growth and no tumor regression was observed
same,ability to eradicate HPV-E7 positive tumors in tumor-bearing mice (tumor regression),TC-1 HPV-positive tumors,only limited tumor regression
same,dose range that effectively attenuates tumor growth,"TC-1 HPV-positive tumors; rodent species, listed as S-enantiomer of DOTAP",effective over this same range of doses
"YMLDLQPETT (Human papillovirus subtype 16 E7 oncogene tumor-associated antigen MHC class I restricted peptide) [E7 peptide, ID; NO]",inhibition of tumor growth,"TC-1 HPV-positive tumors; peptide alone, no lipid (not shown)",did not show any inhibition of tumor growth
